Literature values as cited in US11013777B2, “Aronia extract for enhancing reaction time and attention” (BioActor BV, priority 2017, dated 2021).

Molecule | absorption in the small intestine (in vivo) | appearance in plasma post-ingestion (in vivo) | glucuronidated share of the total anthocyanins in plasma and urine (in vivo) | share of the total metabolites found in plasma (humans, plasma)
anthocyanins | poor absorption | Thirty minutes post-ingestion, anthocyanins can be measured in plasma | approximately 55% | –
OC[C@H]1O[C@@H](Oc2cc3c(O)cc(O)cc3[o+]c2-c2ccc(O)c(O)c2)[C@H](O)[C@@H](O)[C@H]1O [cyanidin-3-galactoside] | – | – | – | around 65%
